Measurements as given in US8119801B2, “HIV inhibiting 2-(4-cyanophenyl)-6-hydroxylaminopyrimidines” (priority 2005, dated 2012).

Legend:
[1] = test system: Strain B, mutation K103N in HIV reverse transcriptase; assay: Antiviral spectrum cellular assay, strain B; format: cell-based; conditions: Human immunodeficiency virus 1, read-out: pEC50 against strain B (converted)
Procedure: (§1) Because of the increasing emergence of drug resistant HIV strains, the present compounds were tested for their potency against clinically isolated HIV strains harboring several mutations. These mutations are associated with resistance to reverse transcriptase inhibitors and result in viruses that show various degrees of phenotypic cross-resistance to the currently commercially available drugs such as for instance AZT and delavirdine.
(§2) The antiviral activity of the compound of the present invention is evaluated in the presence of wild type HIV and HIV mutants bearing mutations at the reverse transcriptase gene. The activity of the compounds is evaluated using a cellular assay and the residual activity is expressed in pEC50 values. The columns IIIB and A-G in the table list the pEC50 values against various strains IIIB, A-G.
Strain B contains mutation K103N in HIV reverse transcriptase, […]

[2] = test system: Strain A, mutation Y181C in HIV reverse transcriptase; assay: Antiviral spectrum cellular assay, strain A; format: cell-based; conditions: Human immunodeficiency virus 1, read-out: pEC50 against strain A (converted)
Procedure: as §1, §2
Strain A contains mutation Y181C in HIV reverse transcriptase, […]

[3] = test system: Strain D, mutation Y188L and S162K in HIV reverse transcriptase; assay: Antiviral spectrum cellular assay, strain D; format: cell-based; conditions: Human immunodeficiency virus 1, read-out: pEC50 against strain D (converted)
Procedure: as §1, §2
Strain D contains mutation Y188L and S162K in HIV reverse transcriptase, […]

[4] = test system: Strain G, mutations L100I, K103N, E138G, V179I, Y181C, L214F, V276V/I and A327A/V in HIV reverse transcriptase; assay: Antiviral spectrum cellular assay, strain G; format: cell-based; conditions: for EC50: Human immunodeficiency virus 1, read-out: pEC50 against strain G (converted)
Procedure: as §1, §2

[5] = test system: Strain E, mutations L100I and K103N in HIV reverse transcriptase; assay: Antiviral spectrum cellular assay, strain E; format: cell-based
Procedure: as §1, §2
Strain E contains mutations L100I and K103N in HIV reverse transcriptase, […]

[6] = test system: Strain C, mutation L100I in HIV reverse transcriptase; assay: Antiviral spectrum cellular assay, strain C; format: cell-based; conditions: Human immunodeficiency virus 1, read-out: pEC50 against strain C (converted)
Procedure: as §1, §2
Strain C contains mutation L100I in HIV reverse transcriptase, […]

[7] = test system: Strain IIIB, wild type HIV-LAI strain; assay: Antiviral spectrum cellular assay, strain IIIB; format: cell-based; conditions: Human immunodeficiency virus 1, IIIB, read-out: pEC50 against strain IIIB (converted)
Procedure: as §1, §2
Strain IIIB is wild type HIV-LAI strain;

[8] = test system: Strain F, mutations K101E and K103N in HIV reverse transcriptase; assay: Antiviral spectrum cellular assay, strain F; format: cell-based
Procedure: as §1, §2
Strain F contains mutations K101E and K103N in HIV reverse transcriptase.

[9] = compared to reference compound A

SMILES | EC50 [1] [nM] | EC50 [2] [nM] | EC50 [3] [nM] | EC50 [4] [nM] | activity against multiple mutated strain G compared to reference compound A [4, 9] | EC50 ([5]; Human immunodeficiency virus 1, read-out: pEC50 against strain E (converted)) [nM] | activity against double mutant strain E compared to reference compound A [5, 9] | EC50 [6] [nM] | EC50 [7] [nM] | melting point | EC50 ([8]; Human immunodeficiency virus 1, read-out: pEC50 against strain F (converted)) [nM] | activity against double mutant strain F compared to reference compound A [8, 9]
Cc1cc(C#N)cc(C)c1Oc1nc(Nc2ccc(C#N)cc2)nc(NO)c1Br [Compound 1, 4-[[6-hydroxylamino-5-bromo-2-[(4-cyanophenyl)amino]-4-pyrimidinyl]oxy]-3,5-dimethylbenzonitrile] | 2.34 | 12 | 3.02 | 479 | improved activity | 1.86 | improved activity | 1.2 | 3.98 | 211 °C (dec.) | 3.63 | improved activity
Cc1cc(C#N)cc(C)c1Oc1nc(Nc2ccc(C#N)cc2)nc(N)c1Br [Compound A, reference compound] | – | 10 | – | 5750 | – | – | – | – | 2.82 | – | – | –
